Source: article PMC6409085, “Three odorant-binding proteins are involved in the behavioral response of Sogatella furcifera to rice plant volatiles” (PeerJ, 2019)
“And” between values parts separate entries of the source, which are not always exact repeats. Equal values may be shown once.

What was measured:
Assay in all cases: biochemical
Assay type in all cases: binding
SfurOBP2 = SfurOBP2 (Sogatella furcifera, UniProt V5T759)
Summary of the method: (§1)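 Fluorescence competitive binding used 2.0 µM SfurOBP and 2.0 µM 1-NPN reporter in 50 mM Tris-HCl, pH 7.4, with odorants at 2-20 µM. Fluorescence was read 2 min after adding the odorant (excitation 337 nm, emission 390-490 nm), in triplicate. Ki was calculated from IC50 as IC50/(1 + [1-NPN]/K1-NPN).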

SfurOBP1 = SfurOBP1 (Sogatella furcifera, UniProt V5T8N5); settings: for Fluorescence competitive binding assay, fluorescence intensity: OBP1, three replicate columns
Summary of the method: as §1

SfurOBP11 = SfurOBP11 (Sogatella furcifera, UniProt V5T6E3)
Summary of the method: as §1

SfurOBP3 = SfurOBP3 (Sogatella furcifera, UniProt V5T818); settings: for Fluorescence competitive binding assay, fluorescence intensity: OBP3, three replicate columns
Summary of the method: as §1

SfurOBP3, sequence (V5T818 entry or part of it): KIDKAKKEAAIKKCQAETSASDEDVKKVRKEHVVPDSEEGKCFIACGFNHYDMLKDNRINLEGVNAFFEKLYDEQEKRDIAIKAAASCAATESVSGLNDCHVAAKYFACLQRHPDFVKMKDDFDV
SfurOBP2, sequence (V5T759 entry or part of it): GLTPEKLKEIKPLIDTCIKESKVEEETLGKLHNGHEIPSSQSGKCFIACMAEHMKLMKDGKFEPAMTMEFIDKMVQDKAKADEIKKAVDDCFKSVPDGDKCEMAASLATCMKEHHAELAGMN
SfurOBP11, sequence (V5T6E3 entry or part of it): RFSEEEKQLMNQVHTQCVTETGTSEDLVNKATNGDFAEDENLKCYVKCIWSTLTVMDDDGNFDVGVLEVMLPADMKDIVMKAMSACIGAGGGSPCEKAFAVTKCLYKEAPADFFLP
SfurOBP1, sequence (V5T8N5 entry or part of it): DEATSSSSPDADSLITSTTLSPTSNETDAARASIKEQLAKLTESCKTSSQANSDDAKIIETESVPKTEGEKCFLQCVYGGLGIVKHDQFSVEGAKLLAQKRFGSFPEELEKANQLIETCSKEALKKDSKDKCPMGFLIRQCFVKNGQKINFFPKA

IC50 (SfurOBP2; SfurOBP2, protein and 1-NPN both 2.0 µM, competitor 2-20 µM, read-out: IC50): > 20 µM
Fluorescence competitive binding assay, OBP2 (raw fluorescence reading) (SfurOBP2; ligand concentration 2 (unit not given), replicate column 1 of 3): 22088
Fluorescence competitive binding assay, OBP2 (raw fluorescence reading) (SfurOBP2; ligand concentration 2 (unit not given), replicate column 2 of 3): 18683
Fluorescence competitive binding assay, OBP2 (raw fluorescence reading) (SfurOBP2; ligand concentration 2 (unit not given), replicate column 3 of 3): 19796
Fluorescence competitive binding assay, OBP2 (raw fluorescence reading) (SfurOBP2; ligand concentration 4 (unit not given), replicate column 1 of 3): 22227
Fluorescence competitive binding assay, OBP2 (raw fluorescence reading) (SfurOBP2; ligand concentration 4 (unit not given), replicate column 2 of 3): 21034
Fluorescence competitive binding assay, OBP2 (raw fluorescence reading) (SfurOBP2; ligand concentration 4 (unit not given), replicate column 3 of 3): 22529
Fluorescence competitive binding assay, OBP2 (raw fluorescence reading) (SfurOBP2; ligand concentration 6 (unit not given), replicate column 1 of 3): 22620
Fluorescence competitive binding assay, OBP2 (raw fluorescence reading) (SfurOBP2; ligand concentration 6 (unit not given), replicate column 2 of 3): 20809
Fluorescence competitive binding assay, OBP2 (raw fluorescence reading) (SfurOBP2; ligand concentration 6 (unit not given), replicate column 3 of 3): 24859
Fluorescence competitive binding assay, OBP2 (raw fluorescence reading) (SfurOBP2; ligand concentration 8 (unit not given), replicate column 1 of 3): 22235
Fluorescence competitive binding assay, OBP2 (raw fluorescence reading) (SfurOBP2; ligand concentration 8 (unit not given), replicate column 2 of 3): 21135
Fluorescence competitive binding assay, OBP2 (raw fluorescence reading) (SfurOBP2; ligand concentration 8 (unit not given), replicate column 3 of 3): 22654
Fluorescence competitive binding assay, OBP2 (raw fluorescence reading) (SfurOBP2; ligand concentration 10 (unit not given), replicate column 1 of 3): 23550
Fluorescence competitive binding assay, OBP2 (raw fluorescence reading) (SfurOBP2; ligand concentration 10 (unit not given), replicate column 2 of 3): 22474
Fluorescence competitive binding assay, OBP2 (raw fluorescence reading) (SfurOBP2; ligand concentration 10 (unit not given), replicate column 3 of 3): 20461
Fluorescence competitive binding assay, OBP2 (raw fluorescence reading) (SfurOBP2; ligand concentration 12 (unit not given), replicate column 1 of 3): 24276
Fluorescence competitive binding assay, OBP2 (raw fluorescence reading) (SfurOBP2; ligand concentration 12 (unit not given), replicate column 2 of 3): 21111
Fluorescence competitive binding assay, OBP2 (raw fluorescence reading) (SfurOBP2; ligand concentration 12 (unit not given), replicate column 3 of 3): 21373
Fluorescence competitive binding assay, OBP2 (raw fluorescence reading) (SfurOBP2; ligand concentration 14 (unit not given), replicate column 1 of 3): 23028
Fluorescence competitive binding assay, OBP2 (raw fluorescence reading) (SfurOBP2; ligand concentration 14 (unit not given), replicate column 2 of 3): 21327
Fluorescence competitive binding assay, OBP2 (raw fluorescence reading) (SfurOBP2; ligand concentration 14 (unit not given), replicate column 3 of 3): 21239
Fluorescence competitive binding assay, OBP2 (raw fluorescence reading) (SfurOBP2; ligand concentration 16 (unit not given), replicate column 1 of 3): 18660
Fluorescence competitive binding assay, OBP2 (raw fluorescence reading) (SfurOBP2; ligand concentration 16 (unit not given), replicate column 2 of 3): 19708
Fluorescence competitive binding assay, OBP2 (raw fluorescence reading) (SfurOBP2; ligand concentration 16 (unit not given), replicate column 3 of 3): 19350
Fluorescence competitive binding assay, OBP2 (raw fluorescence reading) (SfurOBP2; ligand concentration 18 (unit not given), replicate column 1 of 3): 24040
Fluorescence competitive binding assay, OBP2 (raw fluorescence reading) (SfurOBP2; ligand concentration 18 (unit not given), replicate column 2 of 3): 25474
Fluorescence competitive binding assay, OBP2 (raw fluorescence reading) (SfurOBP2; ligand concentration 18 (unit not given), replicate column 3 of 3): 26650
Fluorescence competitive binding assay, OBP2 (raw fluorescence reading) (SfurOBP2; ligand concentration 20 (unit not given), replicate column 1 of 3): 24631
Fluorescence competitive binding assay, OBP2 (raw fluorescence reading) (SfurOBP2; ligand concentration 20 (unit not given), replicate column 2 of 3): 21130
Fluorescence competitive binding assay, OBP2 (raw fluorescence reading) (SfurOBP2; ligand concentration 20 (unit not given), replicate column 3 of 3): 21384
Fluorescence competitive binding assay, fluorescence intensity (SfurOBP1; ligand concentration 2 (μM)): 9199 and 7453 and 7122
Fluorescence competitive binding assay, fluorescence intensity (SfurOBP1; ligand concentration 4 (μM)): 8077 and 8108 and 9442
Fluorescence competitive binding assay, fluorescence intensity (SfurOBP1; ligand concentration 6 (μM)): 8157 and 9511 and 12800
Fluorescence competitive binding assay, fluorescence intensity (SfurOBP1; ligand concentration 8 (μM)): 8086 and 8235 and 10013
Fluorescence competitive binding assay, fluorescence intensity (SfurOBP1; ligand concentration 10 (μM)): 9302 and 9657 and 9738
Fluorescence competitive binding assay, fluorescence intensity (SfurOBP1; ligand concentration 12 (μM)): 8567 and 10513 and 8676
Fluorescence competitive binding assay, fluorescence intensity (SfurOBP1; ligand concentration 14 (μM)): 10345 and 9766 and 9261
Fluorescence competitive binding assay, fluorescence intensity (SfurOBP1; ligand concentration 16 (μM)): 9156 and 9816 and 8326
Fluorescence competitive binding assay, fluorescence intensity (SfurOBP1; ligand concentration 18 (μM)): 11251 and 11486 and 11859
Fluorescence competitive binding assay, fluorescence intensity (SfurOBP1; ligand concentration 20 (μM)): 12749 and 11193 and 9024
IC50 (SfurOBP1; SfurOBP1, protein and 1-NPN both 2.0 µM, competitor 2-20 µM, read-out: IC50): > 20 µM
IC50 (SfurOBP11; SfurOBP11, protein and 1-NPN both 2.0 µM, competitor 2-20 µM, read-out: IC50): > 20 µM
Fluorescence intensity, fluorescence competitive binding assay, OBP11 (SfurOBP11; ligand concentration 2, replicate 1): 31124
Fluorescence intensity, fluorescence competitive binding assay, OBP11 (SfurOBP11; ligand concentration 2, replicate 2): 31165
Fluorescence intensity, fluorescence competitive binding assay, OBP11 (SfurOBP11; ligand concentration 2, replicate 3): 31082
Fluorescence intensity, fluorescence competitive binding assay, OBP11 (SfurOBP11; ligand concentration 4, replicate 1): 31010
Fluorescence intensity, fluorescence competitive binding assay, OBP11 (SfurOBP11; ligand concentration 4, replicate 2): 31130
Fluorescence intensity, fluorescence competitive binding assay, OBP11 (SfurOBP11; ligand concentration 4, replicate 3): 30899
Fluorescence intensity, fluorescence competitive binding assay, OBP11 (SfurOBP11; ligand concentration 6, replicate 1): 26414
Fluorescence intensity, fluorescence competitive binding assay, OBP11 (SfurOBP11; ligand concentration 6, replicate 2): 32905
Fluorescence intensity, fluorescence competitive binding assay, OBP11 (SfurOBP11; ligand concentration 6, replicate 3): 29894
Fluorescence intensity, fluorescence competitive binding assay, OBP11 (SfurOBP11; ligand concentration 8, replicate 1): 27729
Fluorescence intensity, fluorescence competitive binding assay, OBP11 (SfurOBP11; ligand concentration 8, replicate 2): 29971
Fluorescence intensity, fluorescence competitive binding assay, OBP11 (SfurOBP11; ligand concentration 8, replicate 3): 31279
Fluorescence intensity, fluorescence competitive binding assay, OBP11 (SfurOBP11; ligand concentration 10, replicate 1): 29221
Fluorescence intensity, fluorescence competitive binding assay, OBP11 (SfurOBP11; ligand concentration 10, replicate 2): 29436
Fluorescence intensity, fluorescence competitive binding assay, OBP11 (SfurOBP11; ligand concentration 10, replicate 3): 31039
Fluorescence intensity, fluorescence competitive binding assay, OBP11 (SfurOBP11; ligand concentration 12, replicate 1): 26981
Fluorescence intensity, fluorescence competitive binding assay, OBP11 (SfurOBP11; ligand concentration 12, replicate 2): 32241
Fluorescence intensity, fluorescence competitive binding assay, OBP11 (SfurOBP11; ligand concentration 12, replicate 3): 28868
Fluorescence intensity, fluorescence competitive binding assay, OBP11 (SfurOBP11; ligand concentration 14, replicate 1): 27521
Fluorescence intensity, fluorescence competitive binding assay, OBP11 (SfurOBP11; ligand concentration 14, replicate 2): 30203
Fluorescence intensity, fluorescence competitive binding assay, OBP11 (SfurOBP11; ligand concentration 14, replicate 3): 30415
Fluorescence intensity, fluorescence competitive binding assay, OBP11 (SfurOBP11; ligand concentration 16, replicate 1): 28709
Fluorescence intensity, fluorescence competitive binding assay, OBP11 (SfurOBP11; ligand concentration 16, replicate 2): 28254
Fluorescence intensity, fluorescence competitive binding assay, OBP11 (SfurOBP11; ligand concentration 16, replicate 3): 29164
Fluorescence intensity, fluorescence competitive binding assay, OBP11 (SfurOBP11; ligand concentration 18, replicate 1): 29699
Fluorescence intensity, fluorescence competitive binding assay, OBP11 (SfurOBP11; ligand concentration 18, replicate 2): 28164
Fluorescence intensity, fluorescence competitive binding assay, OBP11 (SfurOBP11; ligand concentration 18, replicate 3): 26628
Fluorescence intensity, fluorescence competitive binding assay, OBP11 (SfurOBP11; ligand concentration 20, replicate 1): 26046
Fluorescence intensity, fluorescence competitive binding assay, OBP11 (SfurOBP11; ligand concentration 20, replicate 2): 24149
Fluorescence intensity, fluorescence competitive binding assay, OBP11 (SfurOBP11; ligand concentration 20, replicate 3): 23426
Fluorescence competitive binding assay, fluorescence intensity (SfurOBP3; ligand concentration 2): 44756 and 46756 and 45756
Fluorescence competitive binding assay, fluorescence intensity (SfurOBP3; ligand concentration 4): 44765 and 44970 and 45189
Fluorescence competitive binding assay, fluorescence intensity (SfurOBP3; ligand concentration 6): 56655 and 51780 and 54218
Fluorescence competitive binding assay, fluorescence intensity (SfurOBP3; ligand concentration 8): 56206 and 55200 and 54212
Fluorescence competitive binding assay, fluorescence intensity (SfurOBP3; ligand concentration 10): 105189 and 108079 and 109909
Fluorescence competitive binding assay, fluorescence intensity (SfurOBP3; ligand concentration 12): 109051 and 110510 and 104814
Fluorescence competitive binding assay, fluorescence intensity (SfurOBP3; ligand concentration 14): 104242 and 103301 and 109995
Fluorescence competitive binding assay, fluorescence intensity (SfurOBP3; ligand concentration 16): 96286 and 114978 and 85581
Fluorescence competitive binding assay, fluorescence intensity (SfurOBP3; ligand concentration 18): 113407 and 123942 and 62401
Fluorescence competitive binding assay, fluorescence intensity (SfurOBP3; ligand concentration 20): 54560 and 56227 and 56504
IC50 (SfurOBP3; SfurOBP3, protein and 1-NPN both 2.0 µM, competitor 2-20 µM, read-out: IC50): > 20 µM
Structure (SMILES): CCCCCCCCCCCCCCCCCC [n-octadecane]
